Measured values: patent US11401279B2, “Pyrido[3,2-d]pyrimidine compounds as immunomodulators” (Incyte Corporation, priority 2019, dated 2022)

Assays:
[1] = tested on: PD-L1 aAPC/CHO-K1 cells and Jurkat-PD-1-NFAT effector cells; test: Nuclear factor of activated T-cells (NFAT) assay; assay type: cell-based; conditions: Cricetulus griseus, CHO-K1; luminescence, 24 hours
Outline: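 PD-L1 aAPC/CHO-K1 cells (8000/well) co-cultured with Jurkat-PD-1-NFAT effector cells (10,000/well) plus compound in RPMI/1% FBS, 0.4% DMSO, top concentration 2 μM, 24 h at 37 °C. NFAT luciferase read by Bio-Glo luminescence. Fold induction normalized to DMSO; maximum induction relative to control compound; EC50 from curve fit.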

PD-L1 = PD-L1 (Homo sapiens (Human), UniProt Q9NZQ7); test: PD-L1 whole blood internalization assay; assay type: cell-based; conditions: PD-L1 internalization in human whole blood, CD14+ cells, interferon γ, 24 hour
Chain of PD-L1 (Q9NZQ7 19-290): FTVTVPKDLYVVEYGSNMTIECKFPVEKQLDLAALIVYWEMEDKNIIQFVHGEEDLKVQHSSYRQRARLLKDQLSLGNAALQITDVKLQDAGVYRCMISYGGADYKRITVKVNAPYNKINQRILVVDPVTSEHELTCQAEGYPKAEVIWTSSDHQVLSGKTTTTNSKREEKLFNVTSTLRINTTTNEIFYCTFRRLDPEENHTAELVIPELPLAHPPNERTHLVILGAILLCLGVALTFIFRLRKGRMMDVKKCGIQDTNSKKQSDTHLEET

PD-1/PD-L1 = PD-1/PD-L1 (Homo sapiens (Human), UniProt Q9NZQ7); test: Homogeneous Time-Resolved Fluorescence (HTRF) PD-1/PD-L1 binding assay; conditions: recombinant human PD-1 and PD-L1
Chain of PD-1/PD-L1 (Q9NZQ7 19-238): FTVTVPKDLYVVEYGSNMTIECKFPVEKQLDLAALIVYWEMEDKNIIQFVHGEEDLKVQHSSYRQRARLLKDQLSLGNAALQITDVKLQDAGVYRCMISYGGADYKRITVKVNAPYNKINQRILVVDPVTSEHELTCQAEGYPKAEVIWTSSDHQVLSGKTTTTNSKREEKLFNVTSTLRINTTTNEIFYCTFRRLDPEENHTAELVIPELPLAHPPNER
Outline: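 Human PD-1 (25-167, Fc-tagged; 3 nM) and PD-L1 (19-238, His-tagged; 10 nM) were preincubated 40 min with inhibitors in PBS pH 7.4, 0.05% Tween-20, 0.1% BSA, 1% DMSO, at 25 °C. Eu-anti-human IgG (1 nM) and anti-His-APC (20 nM) were added for 60 min. The 665/620 nm HTRF ratio gave IC50 by curve fitting.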

[2] = tested on: U2OS/PD-L1 cells and Jurkat-PD-1-SHP cells; test: Src homology region 2 domain-containing phosphatase (SHP) assay; assay type: cell-based; conditions: Homo sapiens, U2OS; PathHunter chemiluminescence, 2 hours
Outline: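 U2OS/PD-L1 cells and Jurkat-PD-1-SHP cells, 5000 each, were co-incubated with compound for 2 h at 37 °C in RPMI with 1% FBS. PathHunter enzyme-fragment complementation chemiluminescence reported PD-1/SHP recruitment. IC50 was fitted from percent of DMSO-control activity versus log concentration.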

`Cc1c(Nc2nc(C(F)F)nc3cc(CN4CC[C@@H](O)C4)cnc23)cccc1-c1cccc(NC(=O)c2nc3c(n2C)CCN(CCC24CCC(C(=O)O)(CC2)C4)C3)c1Cl` [Example 1, (R)-4-(2-(2-((2-chloro-3′-((2-(difluoromethyl)-7-((3-hydroxypyrrolidin-1-yl)methyl)pyrido[3,2-d]pyrimidin-4-yl)amino)-2′-methyl-[1,1′-biphenyl]-3-yl)carbamoyl)-1-methyl-1,4,6,7-tetrahydro-5H-imidazo[4,5-c]pyridin-5-yl)ethyl)bicyclo[2.2.1]heptane-1-carboxylic Acid] showed an EC50 [1] of 2 nM, an IC50 (PD-L1) of 7.9 nM and an IC50 (PD-1/PD-L1) of 2.2 nM. It also gave an IC50 [2] of 3 nM.

With `Cc1c(Nc2nc(C(F)F)nc3cc(CN4CC[C@@](C)(O)C4)cnc23)cccc1-c1cccc(NC(=O)c2nc3c(n2C)CCN(CCC24CCC(C(=O)O)(CC2)C4)C3)c1Cl` [Example 2, (R)-4-(2-(2-((2-chloro-3′-((2-(difluoromethyl)-7-((3-hydroxy-3-methylpyrrolidin-1-yl)methyl)pyrido[3,2-d]pyrimidin-4-yl)amino)-2′-methyl-[1,1′-biphenyl]-3-yl)carbamoyl)-1-methyl-1,4,6,7-tetrahydro-5H-imidazo[4,5-c]pyridin-5-yl)ethyl)bicyclo[2.2.1]heptane-1-carboxylic Acid] the EC50 [1] was 4 nM, the IC50 (PD-L1) was 8 nM and the IC50 (PD-1/PD-L1) was 1.5 nM. It also gave an IC50 [2] of 3.9 nM.

Compound `Cc1c(NC(=O)c2nc3c(n2C)CCN(CCC24CCC(C(=O)O)(CC2)C4)C3)cccc1-c1cccc(Nc2nc(C(F)F)nc3cc(CN4CC[C@@H](O)C4)cnc23)c1C` [Example 5, (R)-4-(2-(2-((3′-((2-(difluoromethyl)-7-((3-hydroxypyrrolidin-1-yl)methyl)pyrido[3,2-d]pyrimidin-4-yl)amino)-2,2′-dimethyl-[1,1′-biphenyl]-3-yl)carbamoyl)-1-methyl-1,4,6,7-tetrahydro-5H-imidazo[4,5-c]pyridin-5-yl)ethyl)bicyclo[2.2.1]heptane-1-carboxylic Acid] has an EC50 [1] of 9.2 nM, an IC50 (PD-L1) of 60 nM and an IC50 (PD-1/PD-L1) of 2.1 nM. It also gave an IC50 [2] of 4 nM.
